Here are results for 28 molecules from patent publication EP0508792A1, “Anti-tumor and anti-psoriatic agents” (SCHERING CORPORATION, priority 1991, dated 1992).

The target in one experiment is PKC. Put plainly: Mixed micellar protein kinase C (PKC) assay, in vitro inhibition of PKC. It is filed as biochemical. As to conditions: partially purified rat brain PKC; histone III-S substrate; 23°C, 15 minutes; 2% DMSO. The procedure:
The below listed Test Methods A and B were run in accordance with the procedures described in Bishop, W.R., Petrin, J., Wang, L., Ramesh, U., and Doll, R.J. (1990) Biochemical Pharmacology 40: No. 9, pp. 2129-2135 and Hannun et al, J. Biol. Chem. 260, 10039-10043, (1985), which are herein incorporated by reference.The following modifications were made in this procedure:
A. Protein Kinase C ("PKC") Protocol
Mixed micellular protein kinase C assays were conducted by the methods described in the two articles cited just above, (namely, Bishop et al, and Hannun et al), in a reaction mixture (0.25 mL total volume) containing: 20 mM Tris-HCl (pH 7.5); […] histone III-S; 10 mM MgCl2; 5 mM [g-32P]ATP (4 x 10^6 cpm/nmol); […] CaCl2; 32 mg/mL of phosphatidylserine; […] of 1-oleoyl-2-acetyl-glycerol and various concentrations of compounds of this invention added from a dimethyl-sulfoxide (DMSO) stock solution. The final concentration of DMSO in the reaction was 2% w/v. Reactions were started by addition of approximately […] of partially purified rat brain PKC and allowed to proceed at 23°C for 15 minutes. Reactions were terminated by collection of trichloroacetic acid-precipitated phosphorylated histone on GF/C filters using a Brandel Cell Harvester (Model No. M-24-R).
For the molecule `Cc1ccc2c(c1)c1c3c(c4c5cc(C)ccc5n5c4c1n2[C@@H]1CC[C@H]5O1)C(=N)NC3=O` (relative stereo) [Example 29], the IC50 came out at 42 nM. The same measure, in the same setting: the result for `O=C1NC(=O)c2c1c1c3ccccc3n3c1c1c2c2ccccc2n1[C@@H]1O[C@H]3C[C@@H]1CO` (relative stereo) [Example 35] reads 7.5 nM.

On to `O=C1NC(=O)c2c1c1c3ccccc3n3c1c1c2c2ccccc2n1[C@@H]1O[C@H]3C[C@H]1CO` (relative stereo) [Example 36], for which the IC50 was 10 nM. `NC(=O)[C@H]1C[C@@H]2O[C@H]1n1c3ccccc3c3c4c(c5c6ccccc6n2c5c31)C(=O)NC4=O` (relative stereo) [Example 37] came in with an IC50 of 115 nM. With `CO[C@H]1C[C@@H]2O[C@H]1n1c3ccccc3c3c4c(c5c6ccccc6n2c5c31)C(=O)NC4=O` (relative stereo) [Example 38], the IC50 amounted to 1.4 nM.

As to `CS(=O)(=O)OC[C@H]1C[C@@H]2O[C@H]1n1c3ccccc3c3c4c(c5c6ccccc6n2c5c31)C(=O)NC4=O` (relative stereo) [Example 39], the IC50 amounted to 5 nM. Molecule `CS(=O)(=O)OC[C@@H]1C[C@@H]2O[C@H]1n1c3ccccc3c3c4c(c5c6ccccc6n2c5c31)C(=O)NC4=O` (relative stereo) [Example 40] returned an IC50 of 15 nM. Still for that read-out and setting: the figure for `[N-]=[N+]=NC[C@H]1C[C@@H]2O[C@H]1n1c3ccccc3c3c4c(c5c6ccccc6n2c5c31)C(=O)NC4=O` (relative stereo) [Example 41] is 7.5 nM; for `NC[C@@H]1C[C@@H]2O[C@H]1n1c3ccccc3c3c4c(c5c6ccccc6n2c5c31)C(=O)NC4=O` (relative stereo) [Example 45] it is 13 nM; for `O=C(NC[C@@H]1C[C@@H]2O[C@H]1n1c3ccccc3c3c4c(c5c6ccccc6n2c5c31)C(=O)NC4=O)c1ccccc1` (relative stereo) [Example 46] it is 230 nM. The same measure, in the same setting: the result for `O=C1NC(=O)c2c1c1c3ccccc3n3c1c1c2c2ccccc2n1[C@@H]1O[C@H]3C[C@H]1Cn1ccnc1` (relative stereo) [Example 48] reads 7 nM; that for `CN(C)C[C@@H]1C[C@@H]2O[C@H]1n1c3ccccc3c3c4c(c5c6ccccc6n2c5c31)C(=O)NC4=O` (relative stereo) [Example 49], 4 nM; that for `Cc1ccc2c(c1)c1c3c(c4c5cc(C)ccc5n5c4c1n2[C@@H]1C[C@@H](CO)[C@H]5O1)C(=O)NC3=O` (relative stereo) [Example 57], 23 nM. With `Cc1ccc2c(c1)c1c3c(c4c5cc(C)ccc5n5c4c1n2[C@@H]1C[C@H](CO)[C@H]5O1)C(=O)NC3=O` (relative stereo) [Example 58], the IC50 came out at 23 nM.

In turn, `O=C1NC(=O)c2c1c1c3ccccc3n3c1c1c2c2ccccc2n1[C@@H]1O[C@H]3C[C@H]1C(=O)O` (relative stereo) [Example 63] returned an IC50 of 20 nM. Still for that read-out and setting: the figure for `CC(C)(C)OC(=O)CNC(=O)[C@@H]1C[C@@H]2O[C@H]1n1c3ccccc3c3c4c(c5c6ccccc6n2c5c31)C(=O)NC4=O` (relative stereo) [Example 64] is 19 nM.

The molecule `CNC(=O)[C@@H]1C[C@@H]2O[C@H]1n1c3ccccc3c3c4c(c5c6ccccc6n2c5c31)C(=O)NC4=O` (relative stereo) [Example 65] showed an IC50 of 0.5 nM. `O=C1NC(=O)c2c1c1c3ccccc3n3c1c1c2c2ccccc2n1[C@@H]1O[C@H]3C[C@H]1C(=O)NCc1ccccc1` (relative stereo) [Example 66] registered an IC50 of 20 nM.

In turn, `NC(=O)[C@@H]1C[C@@H]2O[C@H]1n1c3ccccc3c3c4c(c5c6ccccc6n2c5c31)C(=O)NC4=O` (relative stereo) [Example 67] displayed an IC50 of 0.6 nM. Molecule `CN(C)C(=O)[C@@H]1C[C@@H]2O[C@H]1n1c3ccccc3c3c4c(c5c6ccccc6n2c5c31)C(=O)NC4=O` (relative stereo) [Example 68] gave an IC50 of 1 nM.

`O=C(O)CNC(=O)[C@@H]1C[C@@H]2O[C@H]1n1c3ccccc3c3c4c(c5c6ccccc6n2c5c31)C(=O)NC4=O` (relative stereo) [Example 69]: the IC50 was determined as 0.8 nM.

`S=C1NC(=S)c2c1c1c3ccccc3n3c1c1c2c2ccccc2n1[C@H]1CC[C@@H]3O1` [Example 25]: the IC50 was found to be 13 nM. The same measure, in the same setting: the result for `O=C1NC(O)c2c1c1c3ccccc3n3c1c1c2c2ccccc2n1[C@H]1CC[C@@H]3O1` (stereo partly drawn) [Example 26] reads 19 nM; that for `Cc1ccc2c(c1)c1c(Br)c(Br)c3c4cc(C)ccc4n4c3c1n2[C@@H]1CC[C@H]4O1` [Example 27], 18 nM; that for `Cc1ccc2c(c1)c1c(C#N)c(C#N)c3c4cc(C)ccc4n4c3c1n2[C@@H]1CC[C@H]4O1` [Example 28], 58 nM. The same measure, in the same setting: the result for `Cc1ccc2c(c1)c1c3c(c4c5cc(C)ccc5n5c4c1n2[C@@H]1CC[C@H]5O1)C(=O)NC3=O` [Example 30] reads 50 nM.

The test system of a further experiment is Normal Human Keratinocytes (NHEK). Put plainly: 3H thymidine uptake in normal human keratinocytes (NHEK). It is filed as cell-based. As to conditions: Homo sapiens, 20 h; dose response study, 3H thymidine uptake in NHEK; read-out: IC₅₀. The procedure:
^3H Thymidine Uptake in Normal Human Keratinocytes (NHEK): Effects of Compounds of the Invention
Second passage NHEK cells grown in MCDB 153 media with a 5% CO2 air mixture at 37° were used for experiments. Compounds of the invention which were tested were prepared at 5mM stock solutions in DMSO. Cells were grown to 60-80% confluency in 6 well trays. Compounds were added to give a concentration of 5x10⁻⁶ molar and cultures were simultaneously pulsed with 1 microCurie/mL ^3H thymidine for 20 hours. Cells were then harvested and tritium was counted using a liquid scintillation counter; results are the average of 8 wells per compound. In the control, when no compound is employed, there is 0% inhibition of thymidine uptake.
A dose response study of the compound from Example 35, using the just above described test was conducted. Concentrations of the compound from Example 35 ranging from 5x10⁻⁵ to 5x10⁻⁶ M in tenfold dilutions were conducted.
Regarding `O=C1NC(=O)c2c1c1c3ccccc3n3c1c1c2c2ccccc2n1[C@@H]1O[C@H]3C[C@@H]1CO` (relative stereo) [Example 35], the IC50 amounted to 1720 nM.

Staying with this experiment, now noted: compound at 5x10⁻⁶ molar; 3H thymidine pulse 20 hours; average of 8 wells.
In the case of `O=C1NCc2c1c1c3ccccc3n3c1c1c2c2ccccc2n1C1CCC3O1` (racemic) [Example 23], the “% Inhibition of Control” value amounted to 78.8%. On the same count and under the same terms, the result for `O=C1NC(=O)c2c1c1c3ccccc3n3c1c1c2c2ccccc2n1[C@@H]1O[C@H]3C[C@@H]1CO` (relative stereo) [Example 35] reads 99.2%. The same measure, in the same setting: the result for `O=C1NC(=O)c2c1c1c3ccccc3n3c1c1c2c2ccccc2n1[C@H]1CC[C@@H]3O1` [Example 22] reads 77.3%.
